Each structure is given as a SMILES string. Counter-ions that a name gives are not always drawn.

As usually defined, the IC50 is the concentration that gives 50% inhibition. Low values mean greater potency, high ones weaker potency.

One experiment concerns Leishmania infantum. Nature of the experiment: Antimicrobial activity against Leishmania infantum. Type of experiment: functional, organism-based.
On to `COc1ccc2nc3ccc(CO)cc3c(Cl)c2c1`, for which the IC50 was 183 µM.
The same measure, in the same setting: then `COc1ccc2nc3ccc(N(CCCCCCCCN(c4ccc5nc6ccc(OC)cc6c(N)c5c4)c4ccc5nc6ccc(OC)cc6c(N)c5c4)c4ccc5nc6ccc(OC)cc6c(N)c5c4)cc3c(N)c2c1`, with 1 µM.
The same measure, in the same setting: the value for `COc1ccc2nc3ccc(COC(=O)c4ccc(Cl)cc4)cc3c(Cl)c2c1` was 156 µM; that for `COC(=O)OCc1ccc2nc3ccc(OC)cc3c(N)c2c1` was 1 µM; that for `COC(=O)OCc1ccc2nc3ccc(OC)cc3c(Cl)c2c1` was 3 µM.
As to `COc1ccc2nc3ccc(COC(=O)c4ccccc4)cc3c(Cl)c2c1`, the IC50 was 137 µM.
For the compound `CCCC(=O)OCc1ccc2nc3ccc(OC)cc3c(Cl)c2c1`, the midpoint of inhibition, the IC50, lay at 3 µM.
Same read-out and setting: then `COc1ccc(C(=O)OCc2ccc3nc4ccc(OC)cc4c(Cl)c3c2)cc1`, with 125 µM; and `COc1ccc2nc3ccc(COC(=O)c4ccc(Cl)cc4)cc3c(N)c2c1`, with 3 µM.
Same read-out and setting: the value for `COc1ccc2nc3ccc(COC(=O)c4ccccc4)cc3c(N)c2c1` was 35 µM.
Same read-out and setting: then `COc1ccc2nc3ccc(COC(=O)CC(C)C)cc3c(Cl)c2c1`, with 36 µM; and `COc1ccc(C(=O)OCc2ccc3nc4ccc(OC)cc4c(N)c3c2)cc1`, with 2 µM.
`COc1ccc2nc3ccc(COC(=O)c4ccc(F)cc4)cc3c(N)c2c1` displayed an IC50 of 1 µM.
The same measure, in the same setting: the value for `COc1ccc2nc3ccc(COC(=O)CC(C)C)cc3c(N)c2c1` was 2 µM; that for `CCCC(=O)OCc1ccc2nc3ccc(OC)cc3c(N)c2c1` was 3 µM.
On the same count and under the same terms, then `COc1ccc2nc3ccc(NCCCCCCNc4ccc5nc6ccc(OC)cc6c(N)c5c4)cc3c(N)c2c1`, with 1 µM; and `COc1ccc2nc3ccc(NCCCCNc4ccc5nc6ccc(OC)cc6c(N)c5c4)cc3c(N)c2c1`, with 5 µM.
Take `COc1ccc2nc3cc(NCCCCCCCNc4ccc5nc6ccc(OC)cc6c(N)c5c4)ccc3c(N)c2c1`: the IC50 came to 9 µM.
Same read-out and setting: the value for `COc1ccc2nc3ccc(N(CCCCCCN(c4ccc5nc6ccc(OC)cc6c(N)c5c4)c4ccc5nc6ccc(OC)cc6c(N)c5c4)c4ccc5nc6ccc(OC)cc6c(N)c5c4)cc3c(N)c2c1` was 7 µM; that for `COc1ccc2nc3ccc(N(CCCCCCCN(c4ccc5nc6ccc(OC)cc6c(Cl)c5c4)c4ccc5nc6ccc(OC)cc6c(Cl)c5c4)c4ccc5nc6ccc(OC)cc6c(Cl)c5c4)cc3c(Cl)c2c1` was 1 µM.
Still for that read-out and setting: the value for `COc1ccc2nc3ccc(N(CCCCCN(c4ccc5nc6ccc(OC)cc6c(N)c5c4)c4ccc5nc6ccc(OC)cc6c(N)c5c4)c4ccc5nc6ccc(OC)cc6c(N)c5c4)cc3c(N)c2c1` was 2 µM; that for `COc1ccc2nc3ccc(N(CCCCCN(c4ccc5nc6ccc(OC)cc6c(Cl)c5c4)c4ccc5nc6ccc(OC)cc6c(Cl)c5c4)c4ccc5nc6ccc(OC)cc6c(Cl)c5c4)cc3c(Cl)c2c1` was 2 µM; that for `COc1ccc2nc3ccc(N(CCCCCCCN(c4ccc5nc6ccc(OC)cc6c(N)c5c4)c4ccc5nc6ccc(OC)cc6c(N)c5c4)c4ccc5nc6ccc(OC)cc6c(N)c5c4)cc3c(N)c2c1` was 139 µM.
Same read-out and setting: the value for `COc1ccc2nc3ccc(C)cc3c(N)c2c1` was 1 µM; that for `COc1ccc2nc3ccc(CBr)cc3c(N)c2c1` was 4 µM.
`COc1ccc2nc3ccc(CBr)cc3c(Cl)c2c1` showed an IC50 of 6 µM.
Same read-out and setting: then `COc1ccc2nc3ccc(C)cc3c(Cl)c2c1`, with 10 µM.
Still for that read-out and setting: then `COc1ccc2nc3ccc(NCCCCNc4ccc5nc6ccc(OC)cc6c(Cl)c5c4)cc3c(Cl)c2c1`, with 10 µM; and `COc1ccc2nc3ccc(NCCCCCCNc4ccc5nc6ccc(OC)cc6c(Cl)c5c4)cc3c(Cl)c2c1`, with 3 µM; and `COc1ccc2nc3ccc(N(CCCCCCN(c4ccc5nc6ccc(OC)cc6c(Cl)c5c4)c4ccc5nc6ccc(OC)cc6c(Cl)c5c4)c4ccc5nc6ccc(OC)cc6c(Cl)c5c4)cc3c(Cl)c2c1`, with 68 µM.

Another experiment relates to Plasmodium falciparum. Nature of the experiment: Antimicrobial activity against Plasmodium falciparum. The experiment is classed as functional, organism-based.
Turning to `CC(C)NC(=N)NC(=N)Nc1ccc(Cl)cc1` [PROGUANIL], the IC50 amounted to 36 µM.
Still for that read-out and setting: the value for `CC(C)[C@H](CO)Nc1nc(Nc2cccc(Cl)c2)c2ncn(C(C)C)c2n1` [PURVALANOLA] was 3 µM.
Regarding `CCc1nc(N)nc(N)c1-c1ccc(Cl)cc1` [PYRIMETHAMINE], the IC50 is 100 µM.
Same read-out and setting: the value for `COc1ccc2nc3cc(Cl)ccc3c(Nc3cc(CN4CCCC4)c(O)c(CN4CCCC4)c3)c2n1` [PYRONARIDINE] was 64 µM.
The same measure, in the same setting: then `CCN(CC)CCCC(C)Nc1c2ccc(Cl)cc2nc2ccc(OC)cc12` (stereo unspecified) [QUINACRINE], with 41 µM; and `C=C[C@H]1CN2CC[C@H]1C[C@@H]2[C@@H](O)c1ccnc2ccc(OC)cc12` [QUINIDINE], with 24 µM.
On the same count and under the same terms, the value for `C=C[C@H]1CN2CC[C@H]1C[C@H]2[C@H](O)c1ccnc2ccc(OC)cc12` [QUININE] was 54 µM; that for `COCCCOc1ccnc(C[S+]([O-])c2nc3ccccc3[nH]2)c1C` (stereo unspecified) [RABEPRAZOLE] was 7 µM.
`CO[C@H]1/C=C/O[C@@]2(C)Oc3c(C)c(O)c4c(O)c(c(/C=N/N5CCN(C)CC5)c(O)c4c3C2=O)NC(=O)/C(C)=C\C=C\[C@H](C)[C@H](O)[C@@H](C)[C@@H](O)[C@@H](C)[C@H](OC(C)=O)[C@@H]1C` [RIFAMPIN] had an IC50 of 1 µM. Compared with the last compound, the IC50 is about 7-fold lower.
On the same count and under the same terms, then `CN(C)[C@@H]1C(O)=C(C(=O)NCN2CCCC2)C(=O)[C@@]2(O)C(O)=C3C(=O)c4c(O)cccc4[C@@](C)(O)[C@H]3C[C@@H]12` [ROLITETRACYCLINE], with 21 µM.
Turning to `CC[C@H]1OC(=O)[C@H](C)[C@@H](O[C@H]2C[C@@](C)(OC)[C@@H](O)[C@H](C)O2)[C@H](C)[C@@H](O[C@@H]2O[C@H](C)C[C@H](N(C)C)[C@H]2O)[C@](C)(O)C[C@@H](C)/C(=N\OCOCCOC)[C@H](C)[C@@H](O)[C@]1(C)O` [ROXITHROMYCIN], inhibition was half-maximal at 19 µM (IC50).
The same measure, in the same setting: the value for `CCCCCCCCCCOS(=O)(=O)O` [SODIUM DECYL SULFATE] was 460 µM; that for `CCCCCCCCCCCCCCCCOS(=O)(=O)O` [SODIUM HEXADECYL SULFATE] was 145 µM; that for `C=C[C@@H]1CN2CC[C@@]3(CNc4c3ccc(O)c4[C@H]3CCCN3C)[C@@H]2C[C@@H]1C[C@H]1c2[nH]c3ccccc3c2CCN1C` [STRYCHNOPHYLLINE] was 3 µM.
Same read-out and setting: the value for `COc1ncnc(NS(=O)(=O)c2ccc(N)cc2)c1OC` [SULFADOXINE] was 37 µM.
On the same count and under the same terms, the value for `C/C=C1/CN2CC[C@]34c5ccccc5N5C(=O)C([C@H]6C[C@]78c9ccccc9N9C(=O)C=C[C@@H]([C@H]97)[C@H]7C[C@@H]8N6C/C7=C/C)=C[C@H]([C@H]53)[C@H]1C[C@H]24` [SUNGUCINE] was 2 µM; that for `N=C(N)NCCCCCCCCCCNC(=N)N` [SYNTHALIN] was 16 µM.
Turning to `COc1cc(C)c2c(Oc3cccc(C(F)(F)F)c3)c(OC)cc(NC(C)CCCN)c2n1` (stereo unspecified) [TAFENOQUINE], the IC50 is 147 µM. This IC50 lies about 9.2-fold higher than the previous one.
The same measure, in the same setting: then `CC(C)(C)NCc1cc(Nc2ccnc3cc(Cl)ccc23)cc(-c2ccc(Cl)cc2)c1O` [TEBUQUINE], with 53 µM; and `O=C1NC(=O)C(C(=O)Nc2ccc(Cl)cc2)c2ccccc21` (stereo unspecified) [TESICAM], with 16 µM.
The same measure, in the same setting: then `C/C=C1/C[n+]2ccc3c([nH]c4ccccc43)c2C[C@@H]1C1=CN2c3ccccc3[C@]34CCN5C/C(=C/C)[C@H](C[C@H]53)[C@@H]([C@@H]1O)[C@H]24` [TETRADEHYDROLONGICAUDATINE], with 1 µM.
Same read-out and setting: then `CC(C)=CC[C@@]1(C)SC(=O)C(C)=C1O` [THIOLACTOMYCIN 2], with 100 µM; and `CC1=C(O)[C@@](C)(CCC(C)C)SC1=O` [THIOLACTOMYCIN 3], with 259 µM; and `CC(C)=CCC/C(C)=C/C[C@@]1(C)SC(=O)C(C)=C1O` [THIOLACTOMYCIN 4], with 8 µM.
For the compound `CC(C)=CCCC(C)CC[C@@]1(C)SC(=O)C(C)=C1O` (stereo partly specified) [THIOLACTOMYCIN 5], the IC50 stood at 57 µM.
Compound `CC1=C(O)[C@@](C)(CCC(C)CCCC(C)C)SC1=O` (stereo partly specified) [THIOLACTOMYCIN 6] displayed an IC50 of 71 µM.
Same read-out and setting: then `CC(C)=CCC/C(C)=C/CC/C(C)=C/C[C@@]1(C)SC(=O)C(C)=C1O` [THIOLACTOMYCIN 7], with 8 µM; and `CC1=C(O)[C@@](C)(Cc2cccc(C(=O)c3ccccc3)c2)SC1=O` [THIOLACTOMYCIN 8], with 16 µM.
Same read-out and setting: the value for `CC1SC(=O)C(C)(C)C1=O` (stereo unspecified) [THIOLACTOMYCIN 10] was 46 µM; that for `CC(C)=CCC/C(C)=C/CC1(C)C(=O)S[C@@H](C)C1=O` (stereo partly specified) [THIOLACTOMYCIN 11] was 30 µM; that for `C=C/C(C)=C/[C@@]1(C)SC(=O)C(C)=C1O` [THIOLACTOMYCIN] was 49 µM.
The same measure, in the same setting: the value for `CC1=C(O)SC(C)C1=O` (stereo unspecified) [THIOLACTONE] was 471 µM; that for `CN1CCN(CCCN2c3ccccc3Sc3ccc(C(F)(F)F)cc32)CC1` [TRIFLUOPERAZINE] was 6 µM.
For `C/C=C1/CN2CCc3c([nH]c4ccccc34)[C@@H]2C[C@@H]1Cc1nccc2c1[nH]c1ccccc12` [USAMBARENSINE], the IC50 came out at 2 µM.
Compound `CCCCCCOc1c(OC)cc(NC(C)CCCN)c2nccc(C)c12` (stereo unspecified) [WR-242511] had an IC50 of 8 µM.

Another experiment concerns Entamoeba histolytica. Nature of the experiment: Antimicrobial activity against Entamoeba histolytica. The experiment is classed as functional, organism-based.
As for `O=P(O)(O)C(Nc1nccc2ccccc12)P(=O)(O)O`, the midpoint of inhibition, the IC50, lay at 200 µM.
On to `O=P(O)(O)C(Nc1ccc(-c2ccccc2)cc1)P(=O)(O)O`, for which the IC50 was 9 µM.
The same measure, in the same setting: the value for `O=P(O)(O)C(CNc1ccccn1)P(=O)(O)O` was 200 µM; that for `CCCCC(O)(P(=O)(O)O)P(=O)(O)O` was 200 µM; that for `CCn1c2ccccc2c2ccc(NC(P(=O)(O)O)P(=O)(O)O)cc21` was 200 µM.
`O=P(O)(O)C(O)(Cc1ccccn1)P(=O)(O)O` had an IC50 of 200 µM.
With `CCCC(O)(P(=O)(O)O)P(=O)(O)O`, it took 200 µM to reach half-maximal inhibition (IC50).
Still for that read-out and setting: the value for `CN(CCOc1ccccc1)CCC(O)(P(=O)(O)O)P(=O)(O)O` was 6 µM.
Compound `O=P(O)(O)C(O)(CSc1ccncc1)P(=O)(O)O` yielded an IC50 of 200 µM. This IC50 is about 33-fold higher than that of the compound before.
As to `CCCCCCNC(P(=O)(O)O)P(=O)(O)O` [(HEXYLAMINO)METHYLENEDIPHOSPHONIC ACID], inhibition was half-maximal at 200 µM (IC50).
Still for that read-out and setting: then `O=P(O)(O)C(N1CCOCC1)P(=O)(O)O` [MORPHOLINOMETHYLENEDIPHOSPHONIC ACID], with 200 µM.

Values taken from ChEMBL document CHEMBL1212812, “Multi-target spectral moment QSAR versus ANN for antiparasitic drugs against different parasite species” (Bioorg Med Chem, 2010).
